Data from US9889135B2, “Companion diagnostic for CDK4 inhibitors” (Memorial Sloan-Kettering Cancer Center, priority 2013, dated 2018).

Experiments:
[1] = system: HAUSP and MDM2 interaction in LS8817, LS0082, LS7785-1 and LS7785-10 cells; assay: co-immunoprecipitation of HAUSP and MDM2; type: cell-based, human; settings: two days PD0332991, then 5 μM MG132 for 2 hours; detected in untreated cells
Procedure: (§1) FIG. 25A-D. Turnover of MDM2 is regulated post-translationally. […] Extracts were prepared and MDM2 was immunoprecipitated and the presence of HAUSP and MDM2 in the precipitates were determined by immunoblot. IgG was used as a non-specific antibody control for the immunoprecipitation. […] Tubulin is a loading control. HAUSP levels were reduced with shRNA in the indicated cells lines and the effect on protein expression (C) and the accumulation of senescence-associated (3-galactosidase positive cells measured (D). The mean and standard deviation was compiled from at least two independent experiments with each cell line and a representative immunoblot is shown.

[2] = system: catalase in WD/DDLS cell lines; assay: catalase expression by immunoblot; type: cell-based, human; settings: two senescing and two non-senescing cell lines
Text: FIG. 22. Additional immunoblot analysis in responder and non-responder cells. […] Actin is a loading control. This experiment was repeated at least three times for each cell line.

[3] = system: HAUSP in WD/DDLS cell lines; assay: HAUSP levels by immunoblot; type: cell-based, human; settings: 2 days of treatment
Procedure: as §1

[4] = system: RB-negative cells; settings: cited from earlier work
[5] = system: LS8107, LS7785-10, LS8313 and LS7785-1 cells; assay: Oil-Red O staining of lipid droplets; type: cell-based, human
[6] = system: DKMG glioma cells; assay: senescence-associated β-galactosidase staining; type: cell-based
Procedure: (§2) Cells were plated at a concentration of 25,000 per well in a 4-well chamber slides (Lab-Tek) and treated for seven days with drug or shRNA as described above and stained for senescence-associated β-galactosidase (Cell Signaling kit #9860). Cell number was quantitated by DAPI staining and β-galactosidase staining quantitated as a proportion of total cells. Senescence associated heterochromatic foci were quantitated after cells were fixed with 4% paraformaldehyde, permeabilized with 0.1% Triton, blocked with 2% FBS, and stained with antibodies against HP1γ (1:5000 dilution, 2MOD-1G6 Millipore). Senescent cells were identified by immunofluorescence after treatment of slides with anti-mouse secondary antibodies and quantitation of focal SAHF as a percent of total cells (Leica Upright Confocal SP5 confocal microscope). Actin was marked using phalloidin staining (1:500, Invitrogen) and cells were counterstained with DAPI. Cell area was measured by with Metamorph software to calculate relative area per cell.

[7] = system: SNB19 glioma cells; assay: senescence-associated β-galactosidase staining; type: cell-based
Procedure: as §2

[8] = system: T98G glioma cells; assay: senescence-associated β-galactosidase staining; type: cell-based; settings: after treatment
Procedure: as §2

[9] = system: DBTRG-05MG glioma cells; assay: senescence-associated β-galactosidase staining; type: cell-based
Procedure: as §2

[10] = system: MCF7 breast cancer cells; assay: senescence-associated β-galactosidase staining; type: cell-based
Procedure: as §2

[11] = system: CEBPα, FABP4 and PPARγ mRNA in LS8107 and LS7785-10 cells; assay: adipocyte differentiation marker mRNA; type: cell-based, human; settings: seven days
Procedure: FIG. 11. […] Cell lines were maintained in DMEM High glucose (HG) supplemented with 10% heat-inactivated fetal bovine serum. Glioma cell lines, DKMG, SNB19, DBTRG-05MG, and […], were maintained in DMEM HG supplemented with 10% fetal bovine serum and 2 mM glutamine. The MCF7 breast cancer cell line was maintained in RPMI-1640 media supplemented with 10% fetal bovine serum and 2 mM glutamine.

[12] = system: LS6736 cells; assay: SA-β-gal and HP1γ staining in LS6736; type: cell-based, human; settings: LS6736 (MDM2 amplified, CDK4 not); seven days
Procedure: as §2

[13] = system: MDM2 transcripts in WD/DDLS cell lines; assay: MDM2 transcript levels by qPCR; type: cell-based, human; settings: two days; each cell line
[14] = system: seven WD/DDLS cell lines; assay: cell size, phalloidin staining and flow cytometry; type: cell-based, human; settings: continued treatment, all seven cell lines
Procedure: as §2, with “FIGS. 10A-C. […] Cells” for “Cells”

[15] = system: WD/DDLS; assay: phase II clinical trial (NCT01209598), tumor response by CT scan, RECIST; type: in vivo, human
Procedure: FIG. 7. […] GAPDH serves as a loading control.
Antibodies against CDK4 (3F121), MDM2 (N-20 and SMP14), total RB (IF8), Cyclin A (H432), p16 (C20), p53 (DO-1 and Bp53-12), tubulin (C20) and FLAG (M2) were obtained from Santa Cruz Biotechnology, phospho-Rb 780 (#9307) from Cell Signalling, and ARF (3642) from Abeam, HAUSP (A300-033A) from Bethyl Laboratories. Treated cells were lysed with buffer composed of 50 mM Tris-HCl, pH7.4, 250 mM NaCl, 5 mM EDTA, 0.5% NP40, 2 mM PMSF, and supplemented with protease inhibitors. Eighty micrograms of protein were resolved by SDS-PAGE and transferred to PVDF membranes. Membranes were incubated overnight with antibodies (1:1000). […] Pre-treatment biopsies were collected within two weeks of the first dose and post-treatment biopsies collected after at last three weeks of treatment. Extracts were prepared in 50 mM Tris-HCl, pH7.4, 150 mM NaCl, 1 mM EDTA, 1% NP40, 0.25% sodium deoxycholate and supplemented with mini-protease inhibitor cocktail (Roche). Tumor response was assessed by reference radiologist by CT scan every six weeks for 36 weeks, and every 12 weeks thereafter.

[16] = system: E2F7 in WD/DDLS cell lines; assay: E2F7 levels by immunoblot; type: cell-based, human; settings: 48 hours
Text: FIG. 24. […] Tubulin is a loading control. This experiment was repeated at least twice for each cell line.

CC(=O)c1c(C)c2cnc(Nc3ccc(N4CCNCC4)cn3)nc2n(C2CCCC2)c1=O [PD0332991]
interaction of HAUSP and MDM2 detected by co-immunoprecipitation [1]: not in any of the cells treated | catalase expression [2]: increased | HAUSP levels [3]: did not change | proliferation of RB-negative cells [4]: no effect | Oil-Red O staining [5]: not increased | PD-induced SA-β-gal ([6]; 7 days of treatment): Y (Y, yes: the number of SA-β-gal cells increases at least 10X after 7 days of treatment) | number of SA-β-gal cells ([6]; seven days after exposure): significant increase | PD-induced SA-β-gal ([7]; 7 days of treatment): Y (Y, yes: the number of SA-β-gal cells increases at least 10X after 7 days of treatment) | number of SA-β-gal cells ([7]; seven days after exposure): significant increase | increase in the number of SA-β-gal cells [8]: not observed | PD-induced SA-β-gal ([9]; 7 days of treatment): Y (Y, yes: the number of SA-β-gal cells increases at least 10X after 7 days of treatment) | number of SA-β-gal cells ([9]; seven days after exposure): significant increase | PD-induced SA-β-gal ([10]; 7 days of treatment): Y (Y, yes: the number of SA-β-gal cells increases at least 10X after 7 days of treatment) | number of SA-β-gal cells ([10]; seven days after exposure): significant increase | CEBPα, FABP4 and PPARγ mRNA, markers of differentiated adipocytes [11]: None of these markers increased | number of SA-β-gal and SAHF (HP1γ) positive cells [12]: did not increase | MDM2 transcripts [13]: modestly reduced | cell size / cell volume [14]: enlarged | patients who performed well on the drug (RECIST) ([15]; of nine patients with pre- and post-treatment biopsies): five | tumor size decrease ([15]; patient 1, RECIST response, as of March 2013, 125 mg daily for 21 days, seven days of rest): greater than 60% | E2F7 protein amount ([16]; LS8107): did not change | E2F7 protein ([16]; LS8817, LS0082 and LS8313): induced accumulation
